Test results from patent US20100016376A1, “CASPASE INHIBITORS BASED ON PYRIDONE SCAFFOLD” (LG Life Sciences Ltd., priority 2006, published 2010).

Columns and labels:
[1] = test system: Jurkat cell (ATCC TIB-152); assay: Jurkat cell apoptosis induced by Fas antibody, WST-1 method; assay type: cell-based; details: Homo sapiens, amount of alive Jurkat cells by WST-1
Method: The […] inhibitory activity of the inhibitors was determined by subjecting Jurkat cell (ATCC TIB-152) to apoptosis using Fas antibody (Upstate Biotech 05-201) and by detecting the color change according to the WST-1 method known in Francoeur A. M. and Assalian A. (1996) Biochemica 3, 19-25 to observe the amount of alive Jurkat cells when the cells were treated by the inhibitor. Spectra MAX 340 Spectrometer of Molecular Device Co. was used at the absorbance wavelength of 440 nm.

[2] = molecular target: T1, caspase-8 (Homo sapiens, UniProt Q14790); assay: Assay for the caspase inhibitory effect (fluorescent substrate AcDEVD-AFC); assay type: biochemical; details: pH 7.5; 2.1 nM caspase-8, 50 μM AcDEVD-AFC, 25° C., pH 7.50; read-out: Caspase-8 Kobs/[I] (converted)
T1 construct: p10 and p20 subunits (Thornberry, N. A. et al, Nature, 1992, 356, 768) were expressed in E. coli; made in house; host or cells: E. coli
Method: Caspase-1 and caspase-8 known as cysteine proteases in the form of α2β2 were expressed, purified, and activated by modifying a method known in Thornberry, N. A. et al, Nature, 1992, 356, 768; Thornberry, N. A. Methods in Enzymology, 1994, 244, 615; Walker, N. P. C. et al. Cell, 1994, 78, 343, and caspase-9 was also purified by a similar method, and the inhibitory activity against them was tested. Briefly describing, p10 and p20 subunits (Thornberry, N. A. et al, Nature, 1992, 356, 768) were expressed in E. coli and purified by nickel column and anionic exchange chromatography to give caspase-1, caspase-8 and caspase-9. The fluorescent substrates AcYVAD-AFC for thus obtained caspase-1, AcDEVD-AFC for caspase-8, and AcLEHD-AFC for caspase-9, were used for determining specific activity of the synthesized inhibitors. The enzyme reaction was carried cut at 25° C. with various concentrations of the inhibitors in a buffer solution containing 50 mM HEPES(pH 7.50), 10% (w/v) sucrose, 0.1% (w/v) CHAPS, 100 mM NaCl, 1 mM EDTA, and 10 mM DTT in the presence of 50 μM AcYVAD-AFC for 10 nM caspase-1, 50 μM AcDEVD-AFC for 2.1 nM caspase-8, and 150 μM AcLEHD-AFC for 200 nM caspase-9. The inhibitory constants Ki and Kobs of the inhibitors were determined by measuring the reaction velocity with the time lapse using a fluorescent spectrometer and by obtaining the initial rate constant. Ki was calculated from the Lineweaver Burk Plot, and Kobs from the following Equation 1.
Kobs=−ln (1−At/Aoo)/t [Equation 1]
At means cleavage rate (%) at time t, and
Aoo means the maximum cleavage rate (%).
Spectra MAX GeminiXS Fluorescent Spectrometer of Molecular Device Co. W is used at the excitation wavelength of 405 nm and the emission wavelength of 505 nm.

T1 sequence (Q14790 217-374 limits assumed, species assumed): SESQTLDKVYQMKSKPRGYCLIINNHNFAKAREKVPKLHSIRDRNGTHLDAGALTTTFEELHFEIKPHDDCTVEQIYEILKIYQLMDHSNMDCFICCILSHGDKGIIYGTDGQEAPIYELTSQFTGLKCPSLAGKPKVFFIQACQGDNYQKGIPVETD
T1 sequence (Q14790 385-479 limits assumed, species assumed): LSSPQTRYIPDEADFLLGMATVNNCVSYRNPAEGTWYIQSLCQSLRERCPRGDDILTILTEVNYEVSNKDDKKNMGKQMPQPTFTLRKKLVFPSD

IC50 [1] | kinact/KI [2] | Compound
4.9 µM | 467 M⁻¹ s⁻¹ | CCC(C(=O)NC(CC(=O)O)C(=O)CF)c1c(C)ccn(-c2ccccc2)c1=O (stereo not drawn) [Example 1, 5-Fluoro-3-[2-(4-methyl-2-oxo-1-phenyl-1,2-dihydro-pyridin-3-yl)-butyrylamino]-4-oxo-pentanoic acid]
2.43 µM | 1830 M⁻¹ s⁻¹ | CCC(C(=O)NC(CC(=O)O)C(=O)CF)c1c(C)ccn(Cc2ccccc2)c1=O (stereo not drawn) [Example 2, 3-[2-(1-Benzyl-4-methyl-2-oxo-1,2-dihydro-pyridin-3-yl)-butyrylamino]-5-fluoro-4-oxo-pentanoic acid]
 | 750 M⁻¹ s⁻¹ | CCC(C(=O)NC(CC(=O)O)C(=O)CF)c1c(C)ccn(CCc2ccccc2)c1=O (stereo not drawn) [Example 3, 5-Fluoro-3-[2-(4-methyl-2-oxo-1-phenethyl-1,2-dihydro-pyridin-3-yl)-butyrylamino]-4-oxo-pentanoic acid]
0.39 µM | 733 M⁻¹ s⁻¹ | CCC(C(=O)NC(CC(=O)O)C(=O)CF)c1c(C)ccn(CC(C)C)c1=O (stereo not drawn) [Example 4, 5-Fluoro-3-[2-(1-isobutyl-4-methyl-2-oxo-1,2-dihydro-pyridin-3-yl)-butyrylamino]-4-oxo-pentanoic acid]
0.81 µM | 16700 M⁻¹ s⁻¹ | CCC(C(=O)NC(CC(=O)O)C(=O)CF)c1cccn(Cc2ccccc2)c1=O (stereo not drawn) [Example 5, 3-[2-(1-Benzyl-2-oxo-1,2-dihydro-pyridin-3-yl)-butyrylamino]-5-fluoro-4-oxo-pentanoic acid]
2.16 µM | 3500 M⁻¹ s⁻¹ | CC(C)C(C(=O)NC(CC(=O)O)C(=O)CF)c1cccn(Cc2ccccc2)c1=O (stereo not drawn) [Example 6, 3-[2-(1-Benzyl-2-oxo-1,2-dihydro-pyridin-3-yl)-3-methyl-butyrylamino]-5-fluoro-4-oxo-pentanoic acid]
0.64 µM | 6670 M⁻¹ s⁻¹ | CCCC(C(=O)NC(CC(=O)O)C(=O)CF)c1cccn(Cc2ccccc2)c1=O (stereo not drawn) [Example 7, 3-[2-(1-Benzyl-2-oxo-1,2-dihydro-pyridin-3-yl)-pentanoylamino]-5-fluoro-4-oxo-pentanoic acid]
0.18 µM | 33300 M⁻¹ s⁻¹ | CCC(C(=O)NC(CC(=O)O)C(=O)CF)c1cccn(Cc2ccccc2C(C)(C)C)c1=O (stereo not drawn) [Example 8, 3-{2-[1-(2-tert-Butyl-benzyl)-2-oxo-1,2-dihydro-pyridin-3-yl]-butyrylamino}-5-fluoro-4-oxo-pentanoic acid]
